Test results published in patent US20030004172A1, “Fused pyrimidinone matrix metalloproteinase inhibitors” (priority 2001, published 2003).

What follows are compounds tested against MMP-13CD (catalytic domain of collagenase-3) (Homo sapiens, UniProt P45452) (assay: Thiopeptolide substrate hydrolysis inhibition assay, MMP-13CD). Settings: Table I; thiopeptolide substrate, HEPES pH 7.0, 22° C.; read-out: MMP-13CD IC50.
Type: biochemical
From the text: Thiopeptolide substrates show virtually no decomposition or hydrolysis at or below neutral pH in the absence of a matrix metalloproteinase enzyme.
With Cn1c(=O)n(Cc2ccc3c(c2)OCO3)c(=O)c2cc(C(=O)OCc3ccccc3)sc21 [Example 307, 3-1,3-Benzodioxol-5-ylmethyl-1-methyl-2,4-dioxo-1,2,3,4-tetrahydro-thieno[2,3-d]pyrimidine-6-carboxylic acid benzyl ester] the IC50 was 5.2 nM.
Work on COc1cccc(CNC(=O)c2cc3c(=O)n(Cc4ccccc4)c(=O)n(C)c3s2)c1 [Example 343, 3-Benzyl-1-methyl-2,4-dioxo-1,2,3,4-tetrahydro-thieno[2,3-d]pyrimidine-6-carboxylic acid 3-methoxy-benzylamide] yielded an IC50 of 44 nM.
Work on Cc1ccc(CCOC(=O)c2cc3c(=O)n(Cc4ccccc4)c(=O)n(C)c3s2)cc1 [Example 155, 3-Benzyl-1-methyl-2,4-dioxo-1,2,3,4-tetrahydro-thieno[2,3-d]pyrimidine-6-carboxylic acid 2-p-tolyl-ethyl ester] yielded an IC50 of 62000 nM.
For Cc1c(C(=O)OCc2ccccc2)sc2[nH]c(=O)n(Cc3ccc(Br)cc3)c(=O)c12 [Example 301, 3-(4-Bromo-benzyl)-5-methyl-2,4-dioxo-1,2,3,4-tetrahydro-thieno[2,3-d]pyrimidine-6-carboxylic acid benzyl ester], the IC50 was greater than 100000 nM.
Compound COc1ccc(CNC(=O)c2cc3c(=O)n(CCC(=O)c4ccc(Cl)cc4)c(=O)n(C)c3s2)cc1 [Example 271] has an IC50 of 5900 nM.
Cn1c(=O)n(Cc2ccccc2)c(=O)c2cc(C(=O)OCc3cccnc3)sc21 [Example 163, 3-Benzyl-1-methyl-2,4-dioxo-1,2,3,4-tetrahydro-thieno[2,3-d]pyrimidine-6-carboxylic acid pyridin-3-ylmethyl ester] was tested, and the IC50 was 16 nM.
Work on COc1cccc(CNC(=O)c2cc3c(=O)n(Cc4ccc5c(c4)OCC5)c(=O)n(C)c3s2)c1 [Example 85, 3-(2,3-Dihydro-benzofuran-6-ylmethyl)-1-methyl-2,4-dioxo-1,2,3,4-tetrahydro-thieno[2,3-d]pyrimidine-6-carboxylic acid 3-methoxy-benzylamide] yielded an IC50 of 47.5 nM.
Cn1c(=O)n(Cc2ccccc2)c(=O)c2cc(C(=O)OC3CCOC3)sc21 (centres unmarked) [Example 191, 3-Benzyl-1-methyl-2,4-dioxo-1,2,3,4-tetrahydro-thieno[2,3-d]pyrimidine-6-carboxylic acid tetrahydro-furan-3-yl ester] showed an IC50 of 2300 nM.
In the case of COc1ccc(CNC(=O)c2cc3c(=O)n(CC#N)c(=O)n(C)c3s2)cc1 [Example 365, 3-Cyanomethyl-1-methyl-2,4-dioxo-1,2,3,4-tetrahydro-thieno[2,3-d]pyrimidine-6-carboxylic acid 4-methoxy-benzylamide], the IC50 is reported as 1550 nM.
Compound Cn1c(=O)n(Cc2ccccc2)c(=O)c2cc(C(=O)NCCc3cccc(C(F)(F)F)c3)sc21 [Example 349, 3-Benzyl-1-methyl-2,4-dioxo-1,2,3,4-tetrahydro-thieno[2,3-d]pyrimidine-6-carboxylic acid[2-(3-trifluoromethyl-phenyl)-ethyl]-amide] has an IC50 greater than 100000 nM.
COc1ccc(CNC(=O)c2cc3c(=O)n(CCS(=O)(=O)c4ccc(F)cc4)c(=O)n(C)c3s2)cc1 [Example 268] was tested, and the IC50 was 3600 nM.
For Cn1c(=O)n(Cc2ccccc2)c(=O)c2cc(C(=O)NCc3ccc(F)c(C(F)(F)F)c3)sc21 [Example 360, 3-Benzyl-1-methyl-2,4-dioxo-1,2,3,4-tetrahydro-thieno[2,3-d]pyrimidine-6-carboxylic acid 4-fluoro-3-trifluoromethyl-benzylamide], the IC50 was 270 nM.
Compound Cn1c(=O)n(CN2C(=O)c3ccccc3C2=O)c(=O)c2cc(C(=O)OCc3ccccc3)sc21 [Example 117, 3-(1,3-Dioxo-1,3-dihydro-isoindol-2-ylmethyl)-1-methyl-2,4-dioxo-1,2,3,4-tetrahydro-thieno[2,3-d]pyrimidine-6-carboxylic acid benzyl ester] has an IC50 of 36 nM.
For CCN1CCCC(OC(=O)c2cc3c(=O)n(Cc4ccccc4)c(=O)n(C)c3s2)C1 (centres unmarked) [Example 186, 3-Benzyl-1-methyl-2,4-dioxo-1.2.3.4-tetrahydro-thieno[2,3-d]pyrimidine-6-carboxylic acid 1-ethyl-piperidin-3-yl ester], the IC50 was 4500 nM.
In the case of Cn1c(=O)n(Cc2ccccc2)c(=O)c2cc(C(=O)NCc3cc(Cl)cc(Cl)c3)sc21 [Example 352, 3-Benzyl-1-methyl-2,4-dioxo-1,2,3,4-tetrahydro-thieno[2,3-d]pyrimidine-6-carboxylic acid 3 ,5-dichloro-benzylamide], the IC50 is reported as greater than 100000 nM.
Cn1c(=O)n(Cc2ccccc2)c(=O)c2cc(C(=O)NCc3cccs3)sc21 [Example 344, 3-Benzyl-1-methyl-2,4-dioxo-1,2,3,4-tetrahydro-thieno[2,3-d]pyrimidine-6-carboxylic acid (thiophen-2-ylmethyl)-amide] gave an IC50 of 3600 nM.
In the case of COc1cccc(CNC(=O)c2cc3c(=O)n(C(C)c4ccccc4)c(=O)n(C)c3s2)c1 (centres unmarked) [Example 279], the IC50 is reported as 3500 nM.
Cn1c(=O)n(Cc2ccccc2)c(=O)c2cc(C(=O)NCc3ccc(F)c(Cl)c3)sc21 [Example 328, 3-Benzyl-1-methyl-2,4-dioxo-1,2,3,4-tetrahydro-thieno[2,3-d]pyrimidine-6-carboxylic acid 3-chloro-4-fluoro-benzylamide] gave an IC50 of 2700 nM.
Cn1c(=O)n(Cc2ccccc2)c(=O)c2cc(C(=O)OCCOCc3ccccc3)sc21 [Example 170, 3-Benzyl-1-methyl-2,4-dioxo-1,2,3,4-tetrahydro-thieno[2,3-d]pyrimidine-6-carboxylic acid 2-benzyloxy-ethyl ester] was tested, and the IC50 was 720 nM.
With COc1ccc(CNC(=O)c2cc3c(=O)n(C(C)c4ccccc4)c(=O)n(C)c3s2)cc1 (centres unmarked) [Example 253] the IC50 was 810 nM.
Work on COc1ccc(CNC(=O)c2cc3c(=O)n(CC4CCCCC4)c(=O)n(C)c3s2)cc1 [Example 70, 3-cylcohexylmethyl-1-methyl-2,4-dioxo-1,2,3,4-tetrahydro-thieno[2,3-d]pyrimidine-6-carboxylic acid-4methoxy-benzylamide] yielded an IC50 of 119 nM.
COC(=O)c1ccc(Cn2c(=O)c3cc(C(=O)NCc4cccc(OC)c4)sc3n(C)c2=O)cc1OC [Example 240, 2-Methoxy-4-[6-(3-methoxy-benzylcarbamoyl)-1-methyl-2,4-dioxo-1,4-dihydro-2H-thieno[2,3-d]pyrimidin-3-ylmethyl]-benzoic acid methyl ester] was tested, and the IC50 was 180 nM.
Compound COc1ccc(CNC(=O)c2cc3c(=O)n(CCOc4ccc(F)cc4)c(=O)n(C)c3s2)cc1 [Example 234, 3-[2-(4-Fluoro-phenoxy)-ethyl]-1-methyl-2,4-dioxo-1,2,3,4-tetrahydro-thieno[2,3-d]pyrimidine-6-carboxylic acid 4-methoxy-benzylamide] has an IC50 of 150 nM.
CC(=O)OCCn1c(=O)c2cc(C(=O)OCc3ccccc3)sc2n(C)c1=O [Example 145, 3-(2-Acetoxy-ethyl)-1-methyl-2,4-dioxo-1,2,3,4-tetrahydro-thieno[2,3-d]pyrimidine-6-carboxylic acid benzyl ester] gave an IC50 of 1300 nM.
CC#CCn1c(=O)c2cc(C(=O)OCc3ccccc3)sc2n(C)c1=O [Example 131, 3-But-2-ynyl-1-methyl-2,4-dioxo-1,2,3,4-tetrahydro-thieno[2,3-d]pyrimidine-6-carboxylic acid benzyl ester] gave an IC50 of 19 nM.
For Cn1c(=O)n(Cc2ccccc2)c(=O)c2cc(C(=O)NC3CCc4ccccc43)sc21 (centres unmarked) [Example 353, 3-Benzyl-1-methyl-2,4-dioxo-1,2,3,4-tetrahydro-thieno[2,3-d]pyrimidine-6-carboxylic acid indan-1-ylamide], the IC50 was greater than 100000 nM.
COC(=O)c1ccc(Cn2c(=O)c3cc(C(=O)NCc4cccc(OC)c4)sc3n(C)c2=O)cc1 [Example 84, 4-[6-(3-Methoxy-benzylcarbamoyl)-1-methyl-2,4-dioxo-1,4-dihydro-2H-thieno[2,3-d]pyrimidin-3-ylmethyl]-benzoic acid methyl ester] gave an IC50 of 20.5 nM.
Cn1c(=O)n(Cc2ccccc2)c(=O)c2cc(C(=O)NCc3cccnc3)sc21 [Example 339, 3-Benzyl-1-methyl-2,4-dioxo-1,2,3,4-tetrahydro-thieno[2,3-d]pyrimidine-6-carboxylic acid (pyridin-3-ylmethyl)-amide] showed an IC50 of 380 nM.
CC(C)c1ccc(COC(=O)c2cc3c(=O)n(Cc4ccccc4)c(=O)n(C)c3s2)cc1 [Example 154, 3-Benzyl-1-methyl-2,4-dioxo-1,2,3,4-tetrahydro-thieno[2,3-d]pyrimidine-6-carboxylic acid 4-isopropyl-benzyl ester] was tested, and the IC50 was 32000 nM.
With COc1cccc(CNC(=O)c2cc3c(=O)n(Cc4ccc(OC(F)(F)F)cc4)c(=O)n(C)c3s2)c1 [Example 83, 1-Methyl-2,4-dioxo-3-(4-trifluoromethoxy-benzyl)-1,2,3,4-tetrahydro-thieno[2,3-d]pyrimidine-6-carboxylic acid 3-methoxy-benzylamide] the IC50 was 140 nM.
Work on COc1cccc(CNC(=O)c2cc3c(=O)n(CCOc4ccc(Br)cc4)c(=O)n(C)c3s2)c1 [Example 295] yielded an IC50 of 230 nM.
CCCCCOC(=O)c1cc2c(=O)n(Cc3ccccc3)c(=O)n(C)c2s1 [Example 180, 3-Benzyl-1-methyl-2,4-dioxo-1,2,3,4-tetrahydro-thieno[2,3-d]pyrimidine-6-carboxylic acid pentyl ester] showed an IC50 of 30000 nM.
With COc1ccc(CNC(=O)c2cc3c(=O)n(CCS(=O)(=O)c4ccc(C)cc4)c(=O)n(C)c3s2)cc1 [Example 269] the IC50 was 26000 nM.
With Cn1c(=O)n(Cc2ccc(S(C)(=O)=O)cc2)c(=O)c2cc(C(=O)OCc3ccccc3)sc21 [Example 101, 3-(4-Methanesulfonyl-benzyl)-1-methyl-2,4-dioxo-1,2,3,4-tetrahydro-thieno[2,3-d]pyrimidine-6-carboxylic acid benzyl ester] the IC50 was 34 nM.
In the case of COc1ccc(CNC(=O)c2cc3c(=O)n(CCS(=O)(=O)c4ccccc4)c(=O)n(C)c3s2)cc1 [Example 227, 3-(2-Benzenesulfonyl-ethyl)-1-methyl-2,4-dioxo-1,2,3,4-tetrahydro-thieno[2,3-d]pyrimidine-6-carboxylic acid 4-methoxy-benzylamide], the IC50 is reported as 3800 nM.
